The results in this text go back to article PMC4858680, “A platinum-based hybrid drug design approach to circumvent acquired resistance to molecular targeted tyrosine kinase inhibitors” (Scientific Reports, 2016).

One assay concerns the target KIT(V559D) (Homo sapiens, UniProt P10721, V559D). Kind of assay: biochemical. The conditions noted are these: read-out: Percent control.
The target in the next assay is MET(M1250T) (Homo sapiens, UniProt P08581, M1250T). Kind of assay: biochemical. The conditions noted are these: read-out: Percent control.
The next assay concerns the target T1, EPHB4 (Homo sapiens, UniProt P54760).
T1 sequence (P54760 16-987): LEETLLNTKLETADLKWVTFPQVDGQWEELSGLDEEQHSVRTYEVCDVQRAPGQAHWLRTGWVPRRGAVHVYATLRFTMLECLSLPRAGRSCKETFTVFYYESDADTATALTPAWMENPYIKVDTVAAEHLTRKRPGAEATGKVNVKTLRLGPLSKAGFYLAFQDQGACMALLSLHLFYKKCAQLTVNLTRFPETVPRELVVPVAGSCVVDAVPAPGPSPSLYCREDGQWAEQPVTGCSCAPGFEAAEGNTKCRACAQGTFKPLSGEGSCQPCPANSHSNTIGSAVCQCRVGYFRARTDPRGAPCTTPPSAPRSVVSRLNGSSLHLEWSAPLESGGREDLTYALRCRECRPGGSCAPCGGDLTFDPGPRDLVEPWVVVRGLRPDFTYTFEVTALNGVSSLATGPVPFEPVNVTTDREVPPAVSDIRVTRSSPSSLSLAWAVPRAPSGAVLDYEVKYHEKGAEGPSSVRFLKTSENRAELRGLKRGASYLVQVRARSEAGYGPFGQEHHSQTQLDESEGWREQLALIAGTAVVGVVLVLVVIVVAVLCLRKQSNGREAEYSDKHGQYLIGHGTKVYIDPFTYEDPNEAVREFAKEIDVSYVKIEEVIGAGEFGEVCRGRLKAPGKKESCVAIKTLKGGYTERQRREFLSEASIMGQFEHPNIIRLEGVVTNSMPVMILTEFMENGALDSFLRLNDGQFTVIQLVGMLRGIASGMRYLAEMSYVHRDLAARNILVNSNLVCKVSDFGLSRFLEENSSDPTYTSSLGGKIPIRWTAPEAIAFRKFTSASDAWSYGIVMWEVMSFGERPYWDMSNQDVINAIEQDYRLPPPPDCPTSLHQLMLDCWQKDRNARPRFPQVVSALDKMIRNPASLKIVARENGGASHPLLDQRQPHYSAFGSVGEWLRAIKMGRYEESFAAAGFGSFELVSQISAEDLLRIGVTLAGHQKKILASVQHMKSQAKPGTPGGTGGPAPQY
Kind of assay: biochemical. The following applies: read-out: Percent control.

Assay [1] concerns the target T2, FLT3 (Homo sapiens, UniProt P36888).
T2 sequence (P36888 27-993): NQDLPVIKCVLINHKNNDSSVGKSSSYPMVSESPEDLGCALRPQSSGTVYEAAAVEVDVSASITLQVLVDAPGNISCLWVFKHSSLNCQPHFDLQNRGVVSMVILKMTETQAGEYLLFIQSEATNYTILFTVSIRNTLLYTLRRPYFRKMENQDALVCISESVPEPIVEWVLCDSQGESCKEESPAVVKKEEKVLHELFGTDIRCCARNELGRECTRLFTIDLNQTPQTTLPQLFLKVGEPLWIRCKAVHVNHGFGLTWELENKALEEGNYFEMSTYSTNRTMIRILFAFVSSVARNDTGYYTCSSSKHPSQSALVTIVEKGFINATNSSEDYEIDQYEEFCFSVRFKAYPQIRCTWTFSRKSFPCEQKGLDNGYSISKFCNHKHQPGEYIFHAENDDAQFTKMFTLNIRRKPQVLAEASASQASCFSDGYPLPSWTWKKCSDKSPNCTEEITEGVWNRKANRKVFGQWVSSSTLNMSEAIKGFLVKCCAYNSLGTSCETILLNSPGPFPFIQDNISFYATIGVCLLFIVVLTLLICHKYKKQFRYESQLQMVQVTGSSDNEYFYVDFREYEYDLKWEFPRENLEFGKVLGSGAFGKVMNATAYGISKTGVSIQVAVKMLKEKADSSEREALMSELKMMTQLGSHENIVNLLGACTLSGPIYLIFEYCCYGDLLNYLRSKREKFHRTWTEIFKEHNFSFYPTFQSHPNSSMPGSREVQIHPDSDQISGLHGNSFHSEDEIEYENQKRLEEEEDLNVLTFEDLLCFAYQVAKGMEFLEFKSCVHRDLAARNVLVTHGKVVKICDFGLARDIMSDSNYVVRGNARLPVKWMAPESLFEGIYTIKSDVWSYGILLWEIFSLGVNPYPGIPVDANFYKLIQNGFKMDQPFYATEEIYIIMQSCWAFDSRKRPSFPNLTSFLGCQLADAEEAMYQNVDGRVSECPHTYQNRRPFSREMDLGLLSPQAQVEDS
Kind of assay: biochemical. The conditions noted are these: read-out: Percent control.

In assay [2] the target is T2, FLT3.

Molecules are shown by their SMILES. Like-named read-outs stand apart in the source and are kept apart here.

Sequence of MET(M1250T) (P08581 25-1390 M1250T): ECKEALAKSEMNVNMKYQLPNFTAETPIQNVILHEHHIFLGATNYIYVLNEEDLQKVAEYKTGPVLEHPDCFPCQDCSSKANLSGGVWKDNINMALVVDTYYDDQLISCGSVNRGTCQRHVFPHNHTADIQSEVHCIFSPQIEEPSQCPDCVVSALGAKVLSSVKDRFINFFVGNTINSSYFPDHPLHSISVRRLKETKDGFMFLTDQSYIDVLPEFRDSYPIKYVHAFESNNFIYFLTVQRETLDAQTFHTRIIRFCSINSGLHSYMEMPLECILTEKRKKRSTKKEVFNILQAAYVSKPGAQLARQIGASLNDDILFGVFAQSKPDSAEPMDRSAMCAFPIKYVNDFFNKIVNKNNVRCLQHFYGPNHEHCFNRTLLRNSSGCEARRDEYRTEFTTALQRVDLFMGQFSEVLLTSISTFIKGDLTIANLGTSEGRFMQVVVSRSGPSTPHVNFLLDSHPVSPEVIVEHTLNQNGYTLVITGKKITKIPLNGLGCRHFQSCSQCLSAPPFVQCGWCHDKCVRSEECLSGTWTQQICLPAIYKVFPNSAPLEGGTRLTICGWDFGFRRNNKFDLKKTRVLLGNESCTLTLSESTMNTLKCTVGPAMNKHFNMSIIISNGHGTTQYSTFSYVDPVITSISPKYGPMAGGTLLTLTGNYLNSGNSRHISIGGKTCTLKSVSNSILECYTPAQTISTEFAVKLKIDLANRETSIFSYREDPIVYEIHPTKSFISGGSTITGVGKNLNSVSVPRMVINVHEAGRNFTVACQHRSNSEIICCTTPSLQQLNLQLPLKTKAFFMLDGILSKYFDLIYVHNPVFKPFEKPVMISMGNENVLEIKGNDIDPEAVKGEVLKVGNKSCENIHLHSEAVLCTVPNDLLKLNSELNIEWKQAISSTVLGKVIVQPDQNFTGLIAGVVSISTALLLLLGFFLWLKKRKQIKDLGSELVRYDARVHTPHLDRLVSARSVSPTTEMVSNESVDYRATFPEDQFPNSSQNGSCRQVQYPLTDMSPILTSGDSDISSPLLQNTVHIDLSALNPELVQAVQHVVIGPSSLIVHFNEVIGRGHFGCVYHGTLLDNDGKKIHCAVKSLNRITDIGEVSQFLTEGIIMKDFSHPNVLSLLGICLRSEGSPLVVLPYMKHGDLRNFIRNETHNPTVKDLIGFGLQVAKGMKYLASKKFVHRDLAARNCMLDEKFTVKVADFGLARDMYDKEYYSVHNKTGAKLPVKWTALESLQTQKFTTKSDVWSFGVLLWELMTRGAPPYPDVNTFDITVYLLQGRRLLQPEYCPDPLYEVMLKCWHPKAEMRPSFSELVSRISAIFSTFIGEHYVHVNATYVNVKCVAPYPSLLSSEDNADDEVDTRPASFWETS
Sequence of KIT(V559D) (P10721 26-976 V559D): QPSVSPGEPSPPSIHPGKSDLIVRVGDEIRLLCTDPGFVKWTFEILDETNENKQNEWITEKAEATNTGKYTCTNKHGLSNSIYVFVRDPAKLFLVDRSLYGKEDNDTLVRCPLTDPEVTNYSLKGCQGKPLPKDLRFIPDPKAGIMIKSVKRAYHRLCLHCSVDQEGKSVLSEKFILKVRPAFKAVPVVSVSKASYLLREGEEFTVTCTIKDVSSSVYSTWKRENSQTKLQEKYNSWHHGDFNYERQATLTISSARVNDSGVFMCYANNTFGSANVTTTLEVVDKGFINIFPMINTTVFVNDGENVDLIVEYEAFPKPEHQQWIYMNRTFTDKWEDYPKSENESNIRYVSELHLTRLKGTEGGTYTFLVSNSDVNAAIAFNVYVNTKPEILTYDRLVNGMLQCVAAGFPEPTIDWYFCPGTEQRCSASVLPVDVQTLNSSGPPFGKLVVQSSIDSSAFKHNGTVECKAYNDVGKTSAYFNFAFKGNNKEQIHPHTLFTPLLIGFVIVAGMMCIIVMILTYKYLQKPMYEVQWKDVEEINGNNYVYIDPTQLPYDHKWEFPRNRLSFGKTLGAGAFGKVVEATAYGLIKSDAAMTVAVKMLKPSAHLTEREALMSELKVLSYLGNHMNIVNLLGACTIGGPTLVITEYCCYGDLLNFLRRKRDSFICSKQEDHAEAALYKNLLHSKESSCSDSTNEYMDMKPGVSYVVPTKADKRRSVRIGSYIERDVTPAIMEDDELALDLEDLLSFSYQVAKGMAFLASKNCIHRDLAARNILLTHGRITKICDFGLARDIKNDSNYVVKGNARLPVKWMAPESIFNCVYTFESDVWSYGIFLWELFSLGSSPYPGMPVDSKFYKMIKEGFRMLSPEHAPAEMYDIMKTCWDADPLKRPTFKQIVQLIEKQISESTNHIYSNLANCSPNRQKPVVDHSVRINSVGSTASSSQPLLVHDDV

As for `C#Cc1cccc(Nc2ncnc3cc(OCCOC)c(OCCOC)cc23)c1` [Erlotinib], the remaining activity at 10 µM at KIT(V559D) came out at 23.7%; on MET(M1250T), 21.9%; on EPHB4, 18%; on FLT3 [1] it was 10.7%.

For `Cc1ccc(NC(=O)c2ccc(CN3CCN(C)CC3)cc2)cc1Nc1nccc(-c2cccnc2)[n+]1[Pt-2]1([Cl])[NH2+]C2CCCCC2[NH2+]1` (stereo not drawn) [1b, oxaliplatin-imatinib], at FLT3 [2] (FLT3, 10 μM), the Percent control amounted to 88%.

On to `COc1cc2c(Nc3ccc(Br)cc3F)ncnc2cc1OCC1CCN(C)CC1` [Vandetanib, reference compound], for which the values for the remaining activity at 10 µM on EPHB4 and on FLT3 [1] were 4.9% and 7.8%, respectively.

The compound `COc1cc2c(Nc3ccc(Br)cc3F)[n+]([Pt-2]3([Cl])[NH2+]C4CCCCC4[NH2+]3)cnc2cc1OCC1CCN(C)CC1` (stereo not drawn) [3b, oxaliplatin-vandetanib] had a Percent control on FLT3 [2] of 49.

`C#Cc1cccc(Nc2c3cc(OCCOC)c(OCCOC)cc3nc[n+]2[Pt@SP2-2]([NH3+])([NH3+])[Cl])c1` [2a, cisplatin-erlotinib] registered a Percent control at FLT3 [2] of 75.

Consider `Cc1ccc(NC(=O)c2ccc(CN3CCN(C)CC3)cc2)cc1Nc1nccc(-c2cccnc2)n1` [Imatinib, reference compound], for which the figures for the remaining activity at 10 µM on KIT(V559D) and at MET(M1250T) were 0.1% and 100%, respectively. Besides, the Percent control on FLT3 [2] (FLT3, 10 μM) came to 100%.
